How the values were obtained:
[1] = tested on: U2OS line transduced with the Bmal 1-Luc reporter; assay: Period of the circadian rhythm in U2OS cells with Bmal1-Luc reporter (luminescence, cosinor analysis); type: cell-based, Human; conditions: 20 μM; U2OS; DMSO control = 1.00
Protocol: Human osteosarcoma U2OS cells were grown in standard DMEM medium with 10% fetal bovine serum. U2OS cells were transduced with lentiviral particles containing a Bmall-Luc fusion reporter and selected under Blasticidin. The cell line was clonally expanded and a single monoclonal cell line was used for further experiments. Cells were cultured in a 384-well plate in growth medium to 90+% confluence. Test compound or vehicle (DMSO) was applied to recording medium with 100 U/ml penicillin, 100 ug/ml streptomycin, 1x GlutaMAX, 10% fetal bovine serum, and 0.1 mM Luciferin-EF. Luminescence was recorded every hour for the next 144 hours. Circadian rhythm analysis was performed using cosinor analysis.
The length of the period was expressed relative to the period of cells affected only by DMSO vehicle (their period is therefore 1.00). […] The overall effect on circadian oscillations unequivocally proves that the compounds of formula I can be also used to temporally modulate the concentration and activity of not only BMAL1, but also other components of the oscillator including the critical components PER2, CRY and CLOCK in time, as these are an essential part of the mechanism generating the rhythmic expression of the luminescent reporter used. The concentration and level of other proteins, whose rhythmic expression is controlled by an oscillator in the brain and peripheral tissues (so-called clock-controlled genes), are also necessarily affected. The influence of the compounds of formula I on the activity of oscillator components and subordinate genes also means influencing the physiological processes of the cell controlled by these genes and proteins. N^6-furfuryladenine was used as a reference compound. […] The ability to shift the phase of the circadian cycle can be seen in FIG. 2.

[2] = tested on: NIH3T3 line transfected with the Per2-Luc reporter; assay: Period of the circadian rhythm in NIH3T3 fibroblasts with Per2-Luc reporter (luminescence, cosinor analysis); type: cell-based, mouse; conditions: 50 μM; NIH3T3; DMSO control = 1.00
Protocol: NIH3T3 mouse embryonic fibroblasts were grown in standard DMEM with 10% fetal bovine serum. NIH3T3 cells were transfected with 1 μg of Per2-Luc reporter using GeneJuice and selected under hygromycin. The cell line was clonally expanded and a single monoclonal cell line was used for further experiments. Cells were cultured in a 96-well plate in growth medium to 90+% confluence. Test compound or vehicle (DMSO) was applied to recording medium with 100 U/ml penicillin, 100 μg/ml streptomycin, 1x GlutaMAX, 10% fetal calf serum and 0.1 mM Luciferin-EF (Promega Madison, WI, USA). Luminescence was recorded every hour for the next 144 hours. Circadian rhythm analysis was performed using cosinor analysis. Period length was expressed relative to the period of cells affected only by DMSO vehicle (their period length is therefore 1.00).

[3] = tested on: explanted suprachiasmatic nuclei (SCN) of the hypothalamus; assay: PER2::Luc rhythm in organotypic explants of suprachiasmatic nucleus (LumiCycle); type: cell-based, mouse; conditions: ratio of period 72 h after and 72 h before application
Protocol: FIG. 5. Compounds of formula I modulate the parameters of the circadian clock in the suprachiasmatic nucleus, the central circadian oscillator. It increases the period (left; measured as the ratio of period during 72 h after and 72 h before application of a compound) and induces phase shift (right; quantified by fitting a cosine curve before the application of a compound, extrapolating it beyond the time of application and subtracting the actual and extrapolated phases of the first full circadian cycle corrected by endogenous period of the explant, while designating phase advance as positive and phase delay as negative number in hours). (Example 14)
Male and female mPer2Luc mice (strain B6.129S6-Per2tm1Jt/J, JAX, USA) (Yoo et al., 2004; doi: 10.1073/pnas.0308709101) were maintained in a light/dark cycle with 12 hours of light and 12 hours of darkness (LD12: 12), killed between 12:00 and 15:00, i.e. 6-9 hours after turning on the lights, by rapid cervical dislocation under isoflurane anesthesia, their brains were removed and 250 μm thick SCN slices in ice-cold HBSS medium were prepared using a vibratome (Leica, Wetzlar, Germany). Two explants containing SCN from each brain were prepared. […]

[4] = tested on: explanted choroid plexus (ChP) of 4th brain ventricle; assay: PER2::Luc rhythm in explanted choroid plexus (luminescence microscopy); type: cell-based, mouse; conditions: 200 uM, choroid plexus explant
Protocol: FIG. 6: Compound 4 affects the circadian clock in the explanted choroid plexus (CHP). (A) Individual PER2::Luc traces in analysed single-cell-sized regions of interest (ROIs) of explanted choroid plexus (CP) cultivated over 5 days ex vivo in the presence of DMSO (left) or compound 4 (right). Cosine curve below the traces indicates average oscillation across the whole explant; see dramatic increase of period in the presence of 200 uM compound 4. […] (Example 15)
Male mPer2Luc were kept and sacrificed under the same conditions as above. Their brains were removed, choroid plexus was dissected from the 4th ventricle in ice-cold HBSS medium and placed on Millicell Culture Inserts inside 6-well plate with test compound or DMSO vehicle in 1 ml air-buffered recording medium supplemented with 100 U/ml penicillin, 100 ug/ml streptomycin (Sigma-Aldrich, St. Luis, MO, USA), 1x GlutaMAX (ThermoFisher, Waltham, MA, USA), 1x B27 (ThermoFisher) and 0.1 mM Luciferin-EF (Promega Madison, WI, USA). The were placed inside Luminoview LV200 Miscroscope (Olympus, USA) with liquid-cooled EM-CCD camera (Hamamatsu) and luminescence was recorded by 10 min exposure every 1h.

## c1coc(CNc2ncnc3c2ncn3C2CCCCO2)c1 (centres unmarked) [Compound 4, N-(furan-2-ylmethyl)-9-(tetrahydro-2H-pyran-2-yl)-9H-purin-6-amine]
[1]
  Period length ± standard error of the mean (expressed relative to control) at the indicated concentration: 20 μM: 1.08 ± 0
[2]
  Period length ± standard error of the mean (expressed relative to the control) at the indicated concentration: 50 μM: 1.23 ± 0.03
[3]
  Circadian rhythm period (in words): increases the circadian rhythm period
[4]; 5 days ex vivo, vs DMSO
  Period of PER2::Luc (in words): significantly (t-test, P<0.0001) increased
[4]; polar histogram of ROIs vs DMSO
  Phase of PER2::Luc (in words): dramatically affected
